pKi: −log10 of the molar value.
Target: 5-hydroxytryptamine receptor 6 (Homo sapiens, UniProt P50406)
Assay: Displacement of [3H]LSD from human 5HT6 receptor expressed in HEK293 cells after 1.5 hrs by liquid scintillation counting
Settings: not given; call rule not given here

5-hydroxytryptamine receptor 6, sequence (P50406 whole entry): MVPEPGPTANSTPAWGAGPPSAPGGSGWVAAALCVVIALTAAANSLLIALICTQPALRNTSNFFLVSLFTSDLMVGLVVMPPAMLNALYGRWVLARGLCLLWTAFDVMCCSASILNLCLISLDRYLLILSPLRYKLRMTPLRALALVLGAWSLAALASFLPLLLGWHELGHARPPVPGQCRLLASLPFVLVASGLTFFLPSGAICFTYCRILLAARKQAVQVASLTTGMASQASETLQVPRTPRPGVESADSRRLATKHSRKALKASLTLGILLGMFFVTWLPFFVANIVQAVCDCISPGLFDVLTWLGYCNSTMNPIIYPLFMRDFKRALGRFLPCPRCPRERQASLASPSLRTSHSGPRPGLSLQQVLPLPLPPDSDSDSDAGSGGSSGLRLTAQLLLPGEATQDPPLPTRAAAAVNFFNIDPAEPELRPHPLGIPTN

| SMILES | pKi |
| --- | --- |
| O=C1NCN(c2ccccc2)C12CCN(CCCC(c1ccc(F)cc1)c1ccc(F)cc1)CC2 | 5.93 |
| CCN(CC)CCOc1ccc(C(=C(Cl)c2ccccc2)c2ccccc2)cc1 [CLOMIPHENE] | 5.71 |
| CN(C)CCCN1c2ccccc2CCc2ccc(Cl)cc21 [CLOMIPRAMINE] | 6.95 |
| CNCCC=C1c2ccccc2CCc2ccccc21 [NORTRIPTYLINE] | 6.67 |
| O=C(c1ccc(OCCN2CCCCC2)cc1)c1c(-c2ccc(O)cc2)sc2cc(O)ccc12 [RALOXIFENE] | 6.12 |
| CC/C(=C(\c1ccccc1)c1ccc(OCCN(C)C)cc1)c1ccccc1 [TAMOXIFEN] | 5.98 |
| CN(C)CCOc1ccc(/C(=C(/CCCl)c2ccccc2)c2ccccc2)cc1 [TOREMIFENE] | 5.38 |
| OCCN1CCN(CC/C=C2/c3ccccc3Sc3ccc(Cl)cc32)CC1 [ZUCLOPENTHIXOL] | 6.77 |

Same assay, conditions: hek293

| Ki | SMILES |
| --- | --- |
| Not Active | CC(NCCC(c1ccccc1)c1ccccc1)c1ccccc1 (stereo unspecified) [FENDILINE] |
| Not Active | O=c1cc(N2CCOCC2)oc2c(-c3ccccc3)cccc12 [LY-294002] |

| SMILES | Ki |
| --- | --- |
| COc1ccccc1N1CCN(CCCCNC(=O)c2ccc3ccccc3c2)CC1 [BP-897] | Not Active |

— ChEMBL document CHEMBL2151036, “Chemocentric informatics approach to drug discovery: identification and experimental validation of selective estrogen receptor modulators as ligands of 5-hydroxytryptamine-6 receptors and as potential cognition enhancers” (J Med Chem, 2012)
